What was measured:
PcGSTd1 [1] = molecular target: T1, PcGSTd1 (Panonychus citri, UniProt H9BTE1); test: CDNB-GSH conjugation, absorbance […] nm, Lineweaver-Burk; assay type: biochemical; conditions: co-substrate GSH; 28 C
T1 construct: full ORF in pET-28a (BamHI/NotI), His-tag kept (Ni-NTA), E. coli TransBL21(DE3); EC 2.5.1.18
T1 sequence (H9BTE1 1-217): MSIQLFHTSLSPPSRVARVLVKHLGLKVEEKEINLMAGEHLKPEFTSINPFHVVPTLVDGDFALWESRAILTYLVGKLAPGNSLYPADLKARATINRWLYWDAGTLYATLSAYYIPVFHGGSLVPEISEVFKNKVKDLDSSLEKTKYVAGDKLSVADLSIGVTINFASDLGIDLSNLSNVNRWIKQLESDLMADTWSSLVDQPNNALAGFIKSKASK

PcGSTd1 [2] = molecular target: T1, PcGSTd1; test: CDNB-GSH conjugation, absorbance […] nm; assay type: biochemical; conditions: 0.6 mM CDNB, 5 mM GSH, 0.05 M Tris-HCl pH 7.5; ECA 0.05-2 mM

Compound: O=[N+]([O-])c1ccc(Cl)c([N+](=O)[O-])c1 [1-chloro-2,4-dinitrobenzene]
- Km (PcGSTd1 [1]): 1820 ± 490 µM

Compound: C=C(CC)C(=O)c1ccc(OCC(=O)O)c(Cl)c1Cl [ethacrynic acid]
- IC50 (PcGSTd1 [2]): 1130 ± 120 µM
